Patent US10696615B2, “Prenylated hydroxystilbenes” (The University of Sydney, priority 2011, dated 2020)

How the values were obtained:
COLO 205 = assay: NCI in vitro cancer screen, Colon Cancer; format: cell-based, human; details: COLO 205
HOP-92 = assay: NCI in vitro cancer screen, Non-Small Cell Lung Cancer; format: cell-based, human; details: HOP-92
A498 = assay: NCI in vitro cancer screen, Renal Cancer; format: cell-based, human; details: A498
HCT-15 = assay: NCI in vitro cancer screen, Colon Cancer; format: cell-based, human; details: HCT-15
HCT-116 = assay: NCI in vitro cancer screen, Colon Cancer; format: cell-based, human; details: HCT-116
786-0 = assay: NCI in vitro cancer screen, Renal Cancer; format: cell-based, human; details: 786-0
SR = assay: NCI in vitro cancer screen, Leukemia; format: cell-based, human
MOLT-4 = assay: NCI in vitro cancer screen, Leukemia; format: cell-based, human; details: MOLT-4
SN12C = assay: NCI in vitro cancer screen, Renal Cancer; format: cell-based, human
SF-539 = assay: NCI in vitro cancer screen, CNS Cancer; format: cell-based; details: SF-539
NCI-H522 = assay: NCI in vitro cancer screen, Non-Small Cell Lung Cancer; format: cell-based, human; details: NCI-H522
OVCAR-4 = assay: NCI in vitro cancer screen, Ovarian Cancer; format: cell-based, human; details: OVCAR-4
MALME-3M = assay: NCI in vitro cancer screen, Melanoma; format: cell-based, human
HL-60 (TB) = assay: NCI in vitro cancer screen, Leukemia; format: cell-based, human; details: HL-60 (TB)
LOX IMVI = assay: NCI in vitro cancer screen, Melanoma; format: cell-based, human
CAKI-1 = assay: NCI in vitro cancer screen, Renal Cancer; format: cell-based, human; details: CAKI-1
RPMI-8226 = assay: NCI in vitro cancer screen, Leukemia; format: cell-based, human; details: RPMI-8226
EKVX = assay: NCI in vitro cancer screen, Non-Small Cell Lung Cancer; format: cell-based, human
HOP-62 = assay: as above; format: cell-based, human; details: HOP-62
HS 578T = assay: NCI in vitro cancer screen, Breast Cancer; format: cell-based, human
HCC-2998 = assay: NCI in vitro cancer screen, Colon Cancer; format: cell-based, human; details: HCC-2998
NCI-H226 = assay: NCI in vitro cancer screen, Non-Small Cell Lung Cancer; format: cell-based, human; details: NCI-H226
ADR-RES (NCI/ADR-RES) = assay: NCI in vitro cancer screen, Ovarian Cancer; format: cell-based, human
M14 = assay: NCI in vitro cancer screen, Melanoma; format: cell-based, human; details: M14
[1] = system: MDA-MB-231 (MDA-MB-231/ATCC); assay: NCI in vitro cancer screen, Breast Cancer; format: cell-based, human; details: MDA-MB-231
IGROV1 = assay: NCI in vitro cancer screen, Ovarian Cancer; format: cell-based, human; details: IGROV1
SF-268 = assay: NCI in vitro cancer screen, CNS Cancer; format: cell-based, human; details: SF-268
UACC-257 = assay: NCI in vitro cancer screen, Melanoma; format: cell-based, human; details: UACC-257
[2] = Homo sapiens, read-out: LC50 (the source's name)

Structure (SMILES): COc1cc(/C=C/c2cc(O)c(CC=C(C)C)c(O)c2)ccc1O [USYDS13, (E)-4-(3-methyl-2-buten-1-yl)-3,4′,5-trihydroxy-3′-methoxystilbene]
- TGI (COLO 205): 28.9 µM
- GI50 (COLO 205; Homo sapiens): 15.6 µM
- CC50 (COLO 205; [2]): 53.8 µM
- TGI (HOP-92): 30.5 µM
- GI50 (HOP-92; Homo sapiens): 5.96 µM
- CC50 (HOP-92; [2]): > 100 µM
- TGI (A498): 21.0 µM
- GI50 (A498; Homo sapiens): 3.88 µM
- CC50 (A498; [2]): 63.5 µM
- TGI (HCT-15): 20.5 µM
- GI50 (HCT-15; Homo sapiens): 4.25 µM
- CC50 (HCT-15; [2]): 84.5 µM
- TGI (HCT-116): 15.6 µM
- GI50 (HCT-116; Homo sapiens): 4.33 µM
- LC50 (concentration killing 50% of cells) (HCT-116; Homo sapiens): 45.6 µM
- TGI (786-0): 24.5 µM
- GI50 (786-0; Homo sapiens): 5.24 µM
- LC50 (50% net cell kill) (786-0; Homo sapiens): > 100 µM
- TGI (SR): >100 µM
- GI50 (SR; Homo sapiens): 2.8 µM
- CC50 (SR; [2]): > 100 µM
- GI50 (MOLT-4; Homo sapiens): 2.95 µM
- CC50 (MOLT-4; [2]): > 100 µM
- TGI (MOLT-4): 13.7 µM
- TGI (SN12C): >100 µM
- GI50 (SN12C; Homo sapiens): 7.16 µM
- CC50 (SN12C; [2]): > 100 µM
- GI50 (SF-539; Homo sapiens): 7.32 µM
- CC50 (SF-539; [2]): > 100 µM
- TGI (SF-539): 29.9 µM
- GI50 (NCI-H522; Homo sapiens): 2.13 µM
- CC50 (NCI-H522; [2]): 25.6 µM
- TGI (NCI-H522): 59.8 µM
- GI50 (OVCAR-4; Homo sapiens): 9.68 µM
- CC50 (OVCAR-4; [2]): > 100 µM
- TGI (OVCAR-4): 74.8 µM
- GI50 (MALME-3M; Homo sapiens, Malme-3M): 5.53 µM
- CC50 (MALME-3M; Homo sapiens, Malme-3M, read-out: LC50 (the source's name)): > 100 µM
- TGI (MALME-3M; MALME-3M): 32.1 µM
- TGI (HL-60 (TB)): 17.1 µM
- GI50 (HL-60 (TB); Homo sapiens): 2.55 µM
- CC50 (HL-60 (TB); [2]): > 100 µM
- TGI (LOX IMVI): 20.2 µM
- GI50 (LOX IMVI; Homo sapiens): 4.48 µM
- CC50 (LOX IMVI; [2]): 80 µM
- TGI (CAKI-1): >100 µM
- GI50 (CAKI-1; Homo sapiens): 5.9 µM
- CC50 (CAKI-1; [2]): > 100 µM
- GI50 (RPMI-8226; Homo sapiens): 9.05 µM
- CC50 (RPMI-8226; [2]): > 100 µM
- TGI (RPMI-8226): 51.6 µM
- TGI (EKVX): 54.6 µM
- GI50 (EKVX; Homo sapiens): 12.8 µM
- CC50 (EKVX; [2]): > 100 µM
- TGI (HOP-62): 20.4 µM
- GI50 (HOP-62; Homo sapiens): 5.66 µM
- CC50 (HOP-62; [2]): 53.7 µM
- TGI (HS 578T): 15.0 µM
- GI50 (HS 578T; Homo sapiens): 2.4 µM
- CC50 (HS 578T; [2]): > 100 µM
- TGI (HCC-2998): 30.6 µM
- GI50 (HCC-2998; Homo sapiens): 11 µM
- CC50 (HCC-2998; [2]): 85.3 µM
- GI50 (NCI-H226; Homo sapiens): 10.9 µM
- LC50 (50% lethal concentration) (NCI-H226; Homo sapiens): > 100 µM
- TGI (NCI-H226): 50.1 µM
- TGI (ADR-RES (NCI/ADR-RES); ADR-RES): >100 µM
- GI50 (ADR-RES (NCI/ADR-RES); Homo sapiens, NCI/ADR-RES): 4.41 µM
- CC50 (ADR-RES (NCI/ADR-RES); Homo sapiens, NCI/ADR-RES, read-out: LC50 (the source's name)): > 100 µM
- GI50 (M14; Homo sapiens): 4.92 µM
- CC50 (M14; [2]): 51.6 µM
- TGI (M14): 18.5 µM
- GI50 ([1]; Homo sapiens): 1.63 µM
- CC50 [1, 2]: > 100 µM
- TGI [1]: 7.82 µM
- GI50 (IGROV1; Homo sapiens, IGROV-1): 6.7 µM
- CC50 (IGROV1; Homo sapiens, IGROV-1, read-out: LC50 (the source's name)): > 100 µM
- TGI (IGROV1): 86.2 µM
- GI50 (SF-268; Homo sapiens): 6.17 µM
- CC50 (SF-268; [2]): > 100 µM
- TGI (SF-268): 32.9 µM
- GI50 (UACC-257; Homo sapiens): 5.35 µM
- CC50 (UACC-257; [2]): 44 µM
- TGI (UACC-257): 18.1 µM
